Data taken from the COVID Moonshot data (paper PMC7615835).
Values joined by “and” are separate entries in the source; they are usually repeats but may differ in a detail not shown here. Equal entries are not always repeated.

Biological target: SARS-CoV-2 Main Protease (SARS-CoV-2) (UniProt P0DTD1)

SMILES | IC50
O=C(Nc1cncc2cc(F)ccc12)[C@@H]1CCS(=O)(=O)c2ccc(Cl)cc21 (stereo in doubt) | 0.294 µM
Cc1ccncc1NC(=O)CCc1cccc(Cl)c1 | > 99.5 µM
CCNc1ncc(C#N)cc1CN1CCN(C(=O)CCl)CC1 | 3.22 µM
Cn1ccnc1CN(C(=O)CC1(C(=O)Nc2cncc3ccccc23)CCOc2ccc(Cl)cc21)C1CC1 (stereo unspecified) | 5.05 µM
CNC(=O)c1ccc2cncc(NC(=O)C3CN(S(=O)(=O)CC4(C)CS(=O)(=O)C4)Cc4ccc(Cl)cc43)c2c1 (stereo unspecified) | 0.11 µM
O=C(Cc1cc(Cl)cc(Nc2ccc(-c3ccccc3)cc2)c1)Nc1cncc2ccccc12 | 2.06 µM
CC(C)(O)c1cccc(N(C(=O)c2cocn2)C(C(=O)NCCc2cccc(F)c2)c2cccnc2)c1 (stereo unspecified) | > 99.5 µM
CCC1(C(=O)Nc2cncc3ccccc23)CNC(=O)c2ccc(Cl)cc21 (stereo unspecified) | 1.18 µM
COc1cc(Br)ccc1Nc1cc(Cl)cc(CC(=O)Nc2cncc3ccccc23)c1 | 1.39 µM
Cn1cc(C(=O)N(c2ccc(C(C)(C)C)cc2)C(C(=O)NCCc2cccc(F)c2)c2cccnc2)ncc1=O (stereo unspecified) | > 99.5 µM
CC(C)(C)c1ccc(N(C(=O)c2cncs2)C(C(=O)NCCc2cccc(F)c2)c2cccnc2)cc1 (stereo unspecified) | 24.2 µM
O=C(CC1(C(=O)Nc2cncc3ccccc23)CCOc2ccc(Cl)cc21)N1CCN(CC(F)(F)CO)CC1 (stereo unspecified) | 7.28 µM
O=C(Cc1cccc(Cl)c1)Nc1cnccc1-c1ccccc1 | 40.9 µM
CC(=O)Nc1ccc2c(NC(=O)Cc3cccc(Cl)c3)cncc2c1 | 0.392 µM
CN(c1ccc2c(NC(=O)C3CN(S(=O)(=O)CC4(C#N)CC4)Cc4ccc(Cl)cc43)cncc2c1)S(C)(=O)=O (stereo unspecified) | 0.232 µM
Cc1[nH]c2ccccc2c1C(=O)CSc1nc2cc(Cl)cnc2[nH]1 | > 99.5 µM
COc1ccc(S(=O)(=O)N2CCN(C(=O)CCl)CC2)cc1 | 27.5 µM
O=C1CC(Oc2cc(Cl)cc(CC(=O)Nn3cnc4ccccc4c3=O)c2)N1 (stereo unspecified) | > 99.5 µM
Cn1nc(C(C(=O)NCCc2cccc(F)c2)N(C(=O)c2ccco2)c2ccc(C(C)(C)C)cc2)c2ccccc21 (stereo unspecified) | > 99.5 µM
O=C(NCCc1cccc(F)c1)C(c1cccnc1)N(C(=O)c1cnc[nH]1)c1ccc(C2COC2)cc1 (stereo unspecified) | 22.7 µM
O=C(Cc1cc(Cl)cc(Nc2ccnc(Br)c2)c1)Nc1cncc2ccccc12 | 2.74 µM
CN(C(=O)OC(C)(C)C)[C@H]1CCN(c2cc(Cl)cc(CC(=O)Nc3cncc4ccccc34)c2)C1 (stereo in doubt) | 4.21 µM
O=C(Cc1cc(Cl)cc(Nc2c(Cl)cccc2[N+](=O)[O-])c1)Nc1cncc2ccccc12 | 2.37 µM

SMILES | IC50
CS(=O)(=O)Nc1ccc2cncc(NC(=O)C3CCS(=O)(=O)c4ccc(Cl)cc43)c2c1 (stereo unspecified) | 0.204 µM
COC(CNC(=O)C(c1cccnc1)N(C(=O)c1cocn1)c1ccc(C(C)(C)C)cc1)OC (stereo unspecified) | 7.91 µM
CN1Cc2c(Cl)cc(Cl)cc2[C@H](c2cccc(S(=O)(=O)NCCOCCOCCNC(=O)NCCCCNC(=O)NCCOCCOCCNS(=O)(=O)c3cccc([C@@H]4CN(C)Cc5c(Cl)cc(Cl)cc54)c3)c2)C1 (stereo in doubt) | > 99 µM
O=C(Nc1ccc2ccccc2c1)[C@@H]1CN(C(=O)CCl)CCN1S(=O)(=O)c1ccsc1 (stereo in doubt) | 0.523 µM
COc1ccc([C@H](C)Nc2cc(Cl)cc(CC(=O)Nc3cncc4ccccc34)c2)cc1 (stereo in doubt) | 4.73 µM
O=C(Cc1cncc2ccccc12)Nc1cc(Cl)cc(OC2CCC(=O)N2)c1 (stereo unspecified) | 38.4 µM
N#CC1(CS(=O)(=O)N2Cc3ccc(Cl)cc3C(C(=O)Nc3cncc4cc(NS(=O)(=O)C5CC5)ccc34)C2)CC1 (stereo unspecified) | < 0.05 µM
O=C(Cc1cc(Cl)cc(Nc2ccc3cc(Br)ccc3c2)c1)Nc1cncc2ccccc12 | 2.1 µM
O=C1N(c2cncc3ccccc23)CCC12CN(S(=O)(=O)N1CCC1)Cc1ccc(Cl)cc12 (stereo unspecified) | 0.33 µM
N#Cc1ccc(Nc2cc(Cl)cc(CC(=O)Nc3cncc4ccccc34)c2)c(I)c1 | 1.62 µM
O=C(Cc1cc(Cl)cc(NCCc2ccccc2C(F)(F)F)c1)Nc1cncc2ccccc12 | 2.97 µM
Cc1cn2nc(NCc3ccc4ncccc4c3)sc2n1 | > 99.5 µM
CN(C)C(=O)CN1Cc2ccc(Cl)cc2C(C(=O)Nc2cncc3ccccc23)C1 (stereo unspecified) | 0.896 µM
CN1CCn2nc(C(=O)N(c3ccc(C(C)(C)C)cc3)C(C(=O)NCCc3cccc(F)c3)c3cccnc3)cc2S1(=O)=O (stereo unspecified) | > 99.5 µM
Cc1ccncc1N1CCC(c2cccc(Cl)c2)S1(=O)=O (stereo unspecified) | 85 µM
CC(CCc1ccccc1)N1CCN(C(=O)CCl)CC1 (stereo unspecified) | 20.3 µM
O=C(NCCc1cccc(F)c1)C(c1cccnc1)N(C(=O)c1cocn1)c1ccc(-c2nnc3n2CCC3)cc1 (stereo unspecified) | > 99.5 µM
O=C(Cc1cccnc1)Nc1cccc(OC2CC(=O)N2)c1 (stereo unspecified) | 82.6 µM and 94.4 µM
O=C(Cc1cc(Cl)cc(Nc2c(Br)cncc2[N+](=O)[O-])c1)Nc1cncc2ccccc12 | 1.83 µM
O=C(NCCc1cccc(F)c1)C(c1cccnc1)N(C(=O)c1cocn1)C1COC2(CCCC2)C1 (stereo unspecified) | > 99.5 µM
CNC(=O)CN1C[C@@]2(CC(=O)N(c3cncc4ccccc34)C2=O)c2cc(Cl)ccc2C1=O (stereo in doubt) | 0.123 µM
CC(C)(C)c1ccc(N(C(=O)c2ccco2)C(C(=O)NCCc2cccc(F)c2)c2snc3ccccc23)cc1 (stereo unspecified) | 5.33 µM
CCC(=O)Nc1ccc(N(Cc2cscn2)C(=O)Cn2nnc3ccccc32)cc1 | 25 µM
